Test results from patent publication US20250051332A1 (priority 2022, published 2025).

How the values were obtained:
[1] = molecular target: T1, κOR (Homo sapiens, UniProt P41145); assay: cell-based; type: cell-based
T1 construct: host or cells: CHO-K1

[2] = molecular target: T1, κOR; assay: PathHunter β-arrestin-2 recruitment assay at the κOR; type: cell-based; details: FIG. 6
Description: Cell Lines and Cell Culture. To perform the HitHunter cAMP accumulation assay, Chinese hamster ovary cells (CHO-K1) stably expressing human μ-opioid receptor (OPRM1, catalog no. 95-0107C2, DiscoverX, Fremont, CA, USA), K-opioid receptor (OPRK1, catalog no. 95-0088C2, DiscoverX, Fremont, CA, USA), or 6-opioid receptor (OPRD1, catalog no. 95-0108C2, DiscoverX, Fremont, CA, USA) were maintained at 80% confluence in F-12 media supplemented with 10% fetal bovine serum, 1% penicillin/streptomycin/L-glutamine, and 800 μg/mL G418. To perform the PathHunter β-arrestin-2 recruitment assay, U2OS-human κ opioid receptor (κOR) cells stably expressing the κOR and β-arrestin-2 (RRID:CVCL_LA97, DiscoverX, Fremont, CA, USA) were maintained in McCoy's 5A media supplemented with 10% FBS and containing 500 μg/mL geneticin and 250 μg/mL hygromycin. All cells were grown 37° C. under 5% CO2 in a humidified incubator under sterile conditions in T75 flasks. During passaging, cells were dislodged from the flask following a 3-5 min incubation with 0.25% trypsin or non-enzymatic detachment reagent and subcultivated at ratios of 1:10 (CHO) and 3:10 (U2OS).
PathHunter β-arrestin-2 Recruitment Assay. The R-arrestin-2 recruitment assay was performed using U2OS-human (κOR) PathHunter R-arrestin-2 cells (DiscoverX) as previously described.^77

[3] = molecular target: T1, κOR; assay: Competitive radioligand binding with [3H]U69,593; details: radioligand displacement assay
[4] = molecular target: T2, μOR (Homo sapiens, UniProt P35372); assay: Competitive radioligand binding with [3H]DAMGO; details: radioligand displacement assay
T2 construct: host or cells: CHO-K1

[5] = molecular target: KOR (Homo sapiens, UniProt P41145); assay: PDSP radioligand displacement binding; details: average of three independent trials
[6] = molecular target: MOR (Homo sapiens, UniProt P35372); assay: PDSP radioligand displacement binding; details: average of three independent trials
[7] = molecular target: DOR (Homo sapiens, UniProt P41143); assay: PDSP radioligand displacement binding; details: average of three independent trials
[8] = molecular target: T3, 5-HT3 (Homo sapiens, UniProt P46098); assay: PDSP radioligand displacement binding; details: average of three independent trials
T3 sequence (P46098 24-478): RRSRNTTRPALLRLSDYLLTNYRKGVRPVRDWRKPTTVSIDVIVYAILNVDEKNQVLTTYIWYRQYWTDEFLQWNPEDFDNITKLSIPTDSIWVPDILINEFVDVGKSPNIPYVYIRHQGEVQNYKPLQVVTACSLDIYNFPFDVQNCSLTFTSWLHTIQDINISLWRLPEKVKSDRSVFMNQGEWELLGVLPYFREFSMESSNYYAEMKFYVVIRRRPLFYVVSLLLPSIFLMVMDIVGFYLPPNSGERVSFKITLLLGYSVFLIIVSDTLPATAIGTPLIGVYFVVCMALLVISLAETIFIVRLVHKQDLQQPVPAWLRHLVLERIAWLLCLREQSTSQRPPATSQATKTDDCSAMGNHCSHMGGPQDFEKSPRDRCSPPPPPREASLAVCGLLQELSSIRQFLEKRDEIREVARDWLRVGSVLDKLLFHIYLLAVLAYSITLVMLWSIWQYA

[9] = molecular target: 5-HT7A (Homo sapiens, UniProt P34969); assay: PDSP radioligand displacement binding; details: average of three independent trials
[10] = molecular target: T4, Alpha2B (Homo sapiens, UniProt P18089); assay: PDSP radioligand displacement binding; details: average of three independent trials
T4 sequence (P18089 1-450): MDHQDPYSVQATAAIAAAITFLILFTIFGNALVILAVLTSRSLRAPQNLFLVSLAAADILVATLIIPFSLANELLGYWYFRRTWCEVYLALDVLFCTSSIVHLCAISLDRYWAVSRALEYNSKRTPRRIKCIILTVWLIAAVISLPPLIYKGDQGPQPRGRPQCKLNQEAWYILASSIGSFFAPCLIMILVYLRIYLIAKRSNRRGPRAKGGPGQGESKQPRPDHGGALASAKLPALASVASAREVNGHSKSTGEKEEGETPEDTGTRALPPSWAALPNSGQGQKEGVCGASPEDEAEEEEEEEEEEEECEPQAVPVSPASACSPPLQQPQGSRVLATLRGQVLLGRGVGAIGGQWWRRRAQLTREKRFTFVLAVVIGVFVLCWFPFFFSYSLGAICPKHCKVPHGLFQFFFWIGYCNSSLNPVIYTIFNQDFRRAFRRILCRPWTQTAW

[11] = molecular target: Sigma 2; assay: PDSP radioligand displacement binding; details: average of three independent trials
[12] = molecular target: CXCR7 (Homo sapiens, UniProt P25106); assay: CXCR7 agonism follow-up of the PRESTO-Tango screen; type: cell-based; details: weak agonist compared to the CXCR7 agonist VUF11207

With `C/C=C1/CN2CC[C@]34C(=C(C(=O)OC)[C@H]1C[C@H]23)Nc1ccc(I)cc14` [Compound 3, 10-Iodoakuammicine] the “κOR cAMP inhibition pEC50 ± SEM” value [1] was 8.2 ± 0.1, the EC50 ([1]; read-out: κOR cAMP inhibition EC50) was 5.7 nM and the “βArr2 recruitment compared with U50,488” value [2] was “more efficacious than the reference compound U50,488”. It also gave a Ki [3] of 0.087 nM, a Ki [4] of 3600 nM and a Ki [5] of 1 nM. The “Ki (nM) at MOR” value [6] was “— (“—” indicates compound produced less than 50% displacement of radioligand in primary binding screen at 10 μM.)”, the “Ki (nM) at DOR” value [7] was “— (“—” indicates compound produced less than 50% displacement of radioligand in primary binding screen at 10 μM.)” and the Ki [8] was 384 nM. For the same compound, the Ki [9] was 1380 nM, the “Ki (nM) at Alpha2B” value [10] was “— (“—” indicates compound produced less than 50% displacement of radioligand in primary binding screen at 10 μM.)” and the Ki [11] was 2220 nM. For the same compound, the “concentration at which CXCR7 is activated” value [12] was over 3 µM.

In the case of `C/C=C1/CN2CC[C@]34C(=C(C(=O)OC)[C@H]1C[C@H]23)Nc1ccc(Br)cc14` [Compound 2, 10-Bromoakuammicine], the “βArr2 recruitment compared with U50,488” value [2] is reported as “more efficacious than the reference compound U50,488”, the “Ki (nM) at MOR” value [6] is reported as “— (“—” indicates compound produced less than 50% displacement of radioligand in primary binding screen at 10 μM.)” and the “Ki (nM) at DOR” value [7] is reported as “— (“—” indicates compound produced less than 50% displacement of radioligand in primary binding screen at 10 μM.)”. For the same compound, the Ki [8] was 210 nM, the Ki [9] was 1520 nM and the Ki [10] was 1250 nM. It also gave a Ki [11] of 2620 nM.
